The numbers were not newly measured in patent US20110052650A1, “POROUS CRYSTALLINE HYBRID SOLID FOR ADSORBING AND RELEASING GAS OF BIOLOGICAL INTEREST” (Centre National De La Recherche Scientifique - CNR S, priority 2008, published 2011), which cites them from elsewhere.

Each structure is given as a SMILES string.

As for `S` [H2S], the pKa (commonly the negative logarithm of the acid dissociation constant) is listed as 6.8.
